Assay results taken from US9243281B2, “Neuroprotective chemicals and methods for identifying and using same” (Board of Regents of The University of Texas System, priority 2013, dated 2016).

Tests used:
[1] = tested on: hippocampal neurogenesis (Dentate Gyrus); test: in vivo neurogenesis assay (BrdU+ cells in dentate gyrus); set-up: species or system mice; conditions: living mice; vehicle (DMSO) 7.3
From the text: The screen was simple in concept. With help from chemists in the Department of Biochemistry at UTSWMC, we selected 1,000 druglike chemicals from the 250,000 compounds in our high throughput screening center. The compounds were selected to preserve representative chemical diversity of the entire library. They were further selected to enhance the representation of chiral molecules, and to avoid untoward chemical properties such as reactive moieties. The 1,000 molecules were randomly pooled into groups of ten, and each pool was administered directly into the left ventricle of two adult mice. Intracranial delivery was facilitated by stereotactic positioning of a canula fed directly by an Alzet mini-pump containing the mixture of ten chemicals. The drug mixture was administered over a week-long period at concentrations anticipated to deliver mid-nanomolar levels of the ten test compounds. Daily injections of the thymidine analog, bromodeoxyuridine (BrdU), were coadministered in order to monitor the formation of new hippocampal nerve cells. Following compound administration, animals were sacrificed such that brain tissue could be recovered, sectioned and stained with antibodies to BrdU. […]

p70 (NAMPT) = target: T1, p70 (NAMPT) (Homo sapiens, UniProt P43490); test: binding competition for photo-crosslinking of P7C3-S326 to p70 in H2122 cells; conditions: 0.3 μM P7C3-S326 plus 5 μM competitor, p70 band intensity, P7C3-S326 alone compared with plus competitor, vehicle 1.0
T1 construct: endogenous in cells; host or cells: H2122 lung cancer cells
Procedure: Cultured cells were co-exposed to P7C3-S326 (0.3 uM) and the individual P7C3 variants (5 uM), exposed to UV light, lysed, clicked to a fluorescent dye and run on SDS gels (FIG. 11).
P7C3-S326 was diluted to 0.3 μM in culture medium to treat H2122 cells. After incubation at 37° C. for 2 hours, H2122 cells were irradiated for 15 minutes under 306 nm ultraviolet light in a Stratalinker 2400 (Stratagene). Cells were then harvested by dissolving in 1% SDS lysis buffer 50 mM HEPES, pH 8.0, 2 mM MgCl2, 10 mM KCl, 1% SDS, 50 units/ml of Benzonase (Sigma), supplemented with Sigmafast protease inhibitor (Sigma).
The reaction was incubated at room temperature with constant agitation at 1,000 rpm on a thermomixer (Eppendorf) for 1 hour. Samples were then mixed with SDS sample loading buffer and loaded on an 8% SDS-PAGE gel, separated, and imaged using a Typhoon imager (filter settings: excitation 533 nm, emission 555 nm, and high sensitivity).
H2122 cells were incubated with the P7C3-S326 (0.3 μM) in the absence or presence of P7C3 analogs for 2 hours following by UV crosslinking. […] The samples were run on SDS-PAGE gels scanned using a Typhoon Imager. The p70 band intensity was analyzed and quantified by Image J, and the relative intensity in each assay was normalized to that of the DMSO control.

T1 sequence (P43490 whole entry): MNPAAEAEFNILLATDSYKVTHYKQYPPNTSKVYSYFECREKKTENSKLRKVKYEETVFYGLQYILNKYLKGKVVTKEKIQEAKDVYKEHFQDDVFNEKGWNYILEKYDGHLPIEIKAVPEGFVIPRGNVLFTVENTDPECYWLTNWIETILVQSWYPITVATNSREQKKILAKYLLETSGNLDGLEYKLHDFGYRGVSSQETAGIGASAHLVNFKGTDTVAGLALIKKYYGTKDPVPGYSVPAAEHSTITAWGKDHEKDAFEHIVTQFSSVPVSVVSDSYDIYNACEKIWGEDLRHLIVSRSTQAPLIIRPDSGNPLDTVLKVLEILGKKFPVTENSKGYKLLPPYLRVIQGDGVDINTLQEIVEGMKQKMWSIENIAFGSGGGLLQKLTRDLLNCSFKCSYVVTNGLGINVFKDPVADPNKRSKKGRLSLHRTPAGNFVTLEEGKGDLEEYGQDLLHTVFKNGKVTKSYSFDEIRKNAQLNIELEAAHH

Compound | Neurogenesis # BrdU+ Cells (X10E06)/mm3 Dentate Gyrus [1] | Binding competition (p70 (NAMPT))
COc1cccc(N(C)CC(O)Cn2c3ccc(Br)cc3c3cc(Br)ccc32)c1 (centres unmarked) [S1] | 10.8 (X10E06)/mm3 | 
COc1cccc(NCC(O)Cn2c3ccc(C)cc3c3cc(C)ccc32)c1 (centres unmarked) [S2] | 8.1 (X10E06)/mm3 | 3.7
N=c1ccccn1CC(O)Cn1c2ccc(Br)cc2c2cc(Br)ccc21 (centres unmarked) [S5] | 12.2 (X10E06)/mm3 | 1.4
OC(CSc1ccccc1)Cn1c2ccc(Br)cc2c2cc(Br)ccc21 (centres unmarked) [S7] | 15.5 (X10E06)/mm3 | 2.0
OC(CNc1ncccn1)Cn1c2ccc(Br)cc2c2cc(Br)ccc21 (centres unmarked) [S8] | 7.8 (X10E06)/mm3 | 4.7
COc1cccc(N(CC(O)Cn2c3ccc(Br)cc3c3cc(Br)ccc32)C(C)=O)c1 (centres unmarked) [S9] | 11.9 (X10E06)/mm3 | 2.0
COc1cccc(NCC(O)Cn2c3ccc(C)cc3c3cc(Br)ccc32)c1 (centres unmarked) [S14] | 13.5 (X10E06)/mm3 | 4.5
COc1cccc(NCC(O)Cn2c3ccc(Cl)cc3c3cc(Cl)ccc32)c1 (centres unmarked) [S15] | 7.6 (X10E06)/mm3 | 5.3
COc1cccc(NC[C@H](O)Cn2c3ccc(Br)cc3c3cc(Br)ccc32)c1 [S16] | 9.2 (X10E06)/mm3 | 3.1
COc1cccc(NC[C@@H](O)Cn2c3ccc(Br)cc3c3cc(Br)ccc32)c1 [S17] | 14.9 (X10E06)/mm3 | 1.9
Cc1c(C)n(CC(O)CNc2ccccc2)c2ccc(Br)cc12 (centres unmarked) [S18] | 10.9 (X10E06)/mm3 | 1.7
COCC(O)Cn1c2ccc(Br)cc2c2cc(Br)ccc21 (centres unmarked) [S19] | 10.5 (X10E06)/mm3 | 2.9
NCC(O)Cn1c2ccc(Br)cc2c2cc(Br)ccc21 (centres unmarked) [S20] | 12.7 (X10E06)/mm3 | 1.3
OC(CCc1ccccc1)Cn1c2ccc(Br)cc2c2cc(Br)ccc21 (centres unmarked) [S21] | 8.8 (X10E06)/mm3 | 2.3
OC(Cn1ccc2ccccc21)Cn1c2ccc(Br)cc2c2cc(Br)ccc21 (centres unmarked) [S22] | 6.7 (X10E06)/mm3 | 2.7
OCCCc1cn(CC(O)Cn2c3ccc(Br)cc3c3cc(Br)ccc32)nn1 (centres unmarked) [S23] | 7.4 (X10E06)/mm3 | 2.1
CCOc1cccc(NCC(O)Cn2c3ccc(Br)cc3c3cc(Br)ccc32)c1 (centres unmarked) [S24] | 8.0 (X10E06)/mm3 | 3.1
Cc1cc(C)n(CC(O)Cn2c3ccc(Br)cc3c3cc(Br)ccc32)n1 (centres unmarked) [S25] | 7.0 (X10E06)/mm3 | 1.4
OC(CCn1c2ccc(Br)cc2c2cc(Br)ccc21)CNc1ccccc1 (centres unmarked) [S26] | 7.5 (X10E06)/mm3 | 
[O-][S+](CC(O)Cn1c2ccc(Br)cc2c2cc(Br)ccc21)c1ccccc1 (centres unmarked) [S27] | 8.1 (X10E06)/mm3 | 2.8
O=S(=O)(CC(O)Cn1c2ccc(Br)cc2c2cc(Br)ccc21)c1ccccc1 (centres unmarked) [S28] | 13.6 (X10E06)/mm3 | 2.8
COc1cccc(NCC(O)Cn2c3ccccc3c3cc(Br)ccc32)c1 (centres unmarked) [S29] | 9.5 (X10E06)/mm3 | 4.2
OC(CNc1ccccc1)Cn1c2ccc(Br)cc2c2cc(Br)ncc21 (centres unmarked) [S30] | 14.3 (X10E06)/mm3 | 3.3
COc1cccc(NC(=O)C(O)Cn2c3ccc(Br)cc3c3cc(Br)ccc32)c1 (centres unmarked) [S31] | 10.4 (X10E06)/mm3 | 6.2
OC(CCNc1ccccc1)Cn1c2ccc(Br)cc2c2cc(Br)ccc21 (centres unmarked) [S32] | 13.8 (X10E06)/mm3 | 2.7
OC(Cn1c2ccc(Br)cc2c2cc(Br)ccc21)Cn1c2ccc(Br)cc2c2cc(Br)ccc21 [S34] | 7.6 (X10E06)/mm3 | 1.0
OC(Cn1c2ccccc2c2ccccc21)Cn1c2ccc(Br)cc2c2cc(Br)ccc21 (centres unmarked) [S35] | 8.6 (X10E06)/mm3 | 
[N-]=[N+]=Nc1cccc(NCC(O)Cn2c3ccc(Br)cc3c3cc(Br)ccc32)c1 (centres unmarked) [S36] | 8.9 (X10E06)/mm3 | 3.1

Compound | Neurogenesis # BrdU+ Cells (X10E06)/mm3 Dentate Gyrus [1] | Binding competition (p70 (NAMPT))
OC(CNc1ccccn1)Cn1c2ccc(Br)cc2c2cc(Br)ccc21 (centres unmarked) [S38] | 13.7 (X10E06)/mm3 | 4.2
OC(COc1ccccc1)Cn1c2ccc(Br)cc2c2cc(Br)ccc21 (centres unmarked) [S39] | 14.8 (X10E06)/mm3 | 2.6
O[C@@H](COc1ccccc1)Cn1c2ccc(Br)cc2c2cc(Br)ccc21 [S40] | 8.1 (X10E06)/mm3 | 2.8
O[C@H](COc1ccccc1)Cn1c2ccc(Br)cc2c2cc(Br)ccc21 [S41] | 15.3 (X10E06)/mm3 | 3.4
FC(COc1ccccc1)Cn1c2ccc(Br)cc2c2cc(Br)ccc21 (centres unmarked) [S42] | 11.7 (X10E06)/mm3 | 1.7
CC(=O)NCCOCC(O)Cn1c2ccc(Br)cc2c2cc(Br)ccc21 (centres unmarked) [S43] | 11.7 (X10E06)/mm3 | 1.7
OC(CNc1ccncc1)Cn1c2ccc(Br)cc2c2cc(Br)ccc21 (centres unmarked) [S45] | 8.0 (X10E06)/mm3 | 1.2
Cc1ccc2c(c1)c1c(n2CC(O)CNc2ccccc2)CCN(C)C1 (centres unmarked) [S46] | 9.2 (X10E06)/mm3 | 1.9
COc1cccc(NCC(O)Cn2c3ccc(Br)cc3c3cc(N=[N+]=[N-])ccc32)c1 (centres unmarked) [S47] | 10.1 (X10E06)/mm3 | 5.5
COc1ccc(OCC(O)Cn2c3ccc(Br)cc3c3cc(Br)ccc32)cc1 (centres unmarked) [S49] | 12.0 (X10E06)/mm3 | 
FC(CNc1ccccc1)Cn1c2ccc(Br)cc2c2cc(Br)ccc21 (centres unmarked) [S55] | 13.8 (X10E06)/mm3 | 
COc1ccc(OCC2(Cn3c4ccc(Br)cc4c4cc(Br)ccc43)NN2)cc1 [S57] | 11.9 (X10E06)/mm3 | 
C#Cc1ccc2c(c1)c1cc(C#C)ccc1n2CC(O)CNc1cccc(OC)c1 (centres unmarked) [S64] | 8.6 (X10E06)/mm3 | 
OC(CNc1ccccc1)Cn1c2ccc(C(F)(F)F)cc2c2cc(C(F)(F)F)ccc21 (centres unmarked) [S75] |  | 2.5
CN(C)CCCN1c2ccccc2CCc2ccccc21.Cl [S88, Imipramine, reference compound] | 7.8 (X10E06)/mm3 | 
O=C(COc1cccc(S(=O)(=O)CC(O)Cn2c3ccc(Br)cc3c3cc(Br)ccc32)c1)NCc1ccccc1 (centres unmarked) [S102] | 8.9 (X10E06)/mm3 | 
O=C(Cn1c2ccc(Br)cc2c2cc(Br)ccc21)Nc1ccccc1 [S112] |  | 1.2
Brc1ccc2c(c1)c1cc(Br)ccc1n2CCNc1ccccc1 [S115] |  | 3.7
Fc1ccc([C@@H]2CCNC[C@H]2COc2ccc3c(c2)OCO3)cc1 [S120, Paxil, reference compound] |  | 1.3
CC(NC(C)(C)C)C(=O)c1cccc(Cl)c1 (centres unmarked) [S125, Wellbutrin, reference compound] |  | 1.1
CC(C)(C)OC(=O)CCOCCOCCOCCOc1ccc(S(=O)(=O)CC(O)Cn2c3ccc(Br)cc3c3cc(Br)ccc32)cc1 (centres unmarked) [S130] |  | 2.9
Brc1ccc2[nH]c3ccc(Br)cc3c2c1 [S162] |  | 2.3
Cn1c2ccc(Br)cc2c2cc(Br)ccc21 [S163] |  | 2.5
O=C(O)Cn1c2ccc(Br)cc2c2cc(Br)ccc21 [S165] |  | 1.3
OC(CNC1CCCC1)Cn1c2ccc(Br)cc2c2cc(Br)ccc21 (centres unmarked) [S176] |  | 4.1
OC(CNc1cccc2ccccc12)Cn1c2ccccc2c2ccccc21 (centres unmarked) [S180] |  | 3.2
CN(C)C[C@H](O)CN1c2ccccc2CCc2ccccc21 [S181] |  | 0.9
